Values of other authors in patent US20100035998A1, “COMBINATION S-NITROSOTHIOL PHARMACEUTICAL PRODUCTS FOR RESTORING NORMAL BREATHING RHYTHMS” (Galleon Pharmaceutical, Inc, priority 2005, published 2010).

What was measured:
[1] = tested on: patients that had predominantly obstructive sleep apnea; details: low doses; patients with predominantly obstructive sleep apnea
central apnea patients = details: low doses
upper airway tone = details: animals

| SMILES | reduction in apnea episodes [1] | apnea episodes after one month of treatment (central apnea patients; 25.5 pre-treatment) | decrease in apnea episodes (central apnea patients; pre-treatment vs after one month of treatment) | effect on tone of the upper airway (upper airway tone) |
| --- | --- | --- | --- | --- |
| CC(=O)Nc1nnc(S(N)(=O)=O)s1 [acetazolamide] | about 25% | 6.8 | 73% |  |
| CN1CCN2c3ncccc3Cc3ccccc3C2C1 (stereo not shown) [Mirtazapine] |  |  |  | help restore the tone of the upper airway to prevent collapse |
